Data reported in paper PMC6222927, “Aminobenzosuberone Scaffold as a Modular Chemical Tool for the Inhibition of Therapeutically Relevant M1 Aminopeptidases” (Molecules : A Journal of Synthetic Chemistry and Natural …, 2018).
Where two headings read alike, the source gives them in different places.

What was measured:
[1] = biological target: pAPN from porcine kidney; conditions: Dixon plots; cited from earlier work
[2] = Octanol/water partition coefficient (logD7.4) by reversed-phase HPLC; conditions: pH 7.4
Experimental: The flow was 0.9 mL/min. The aminobenzosuberone derivatives were dissolved at 0.4 µM in methanol. The standards were also dissolved in methanol. Column void volume was estimated from the retention time of uracil, which was included as a non-retained internal reference with each injection.

[3] = biological target: T1, P. falciparum rPfAM17 (Plasmodium falciparum, UniProt Q8IL11); design: method as in PMID 28934959; conditions: ref 69; cited from earlier work
T1 construct: made in house; host or cells: Escherichia coli Rosetta 2 (DE3)
T1 sequence (Q8IL11 1-605): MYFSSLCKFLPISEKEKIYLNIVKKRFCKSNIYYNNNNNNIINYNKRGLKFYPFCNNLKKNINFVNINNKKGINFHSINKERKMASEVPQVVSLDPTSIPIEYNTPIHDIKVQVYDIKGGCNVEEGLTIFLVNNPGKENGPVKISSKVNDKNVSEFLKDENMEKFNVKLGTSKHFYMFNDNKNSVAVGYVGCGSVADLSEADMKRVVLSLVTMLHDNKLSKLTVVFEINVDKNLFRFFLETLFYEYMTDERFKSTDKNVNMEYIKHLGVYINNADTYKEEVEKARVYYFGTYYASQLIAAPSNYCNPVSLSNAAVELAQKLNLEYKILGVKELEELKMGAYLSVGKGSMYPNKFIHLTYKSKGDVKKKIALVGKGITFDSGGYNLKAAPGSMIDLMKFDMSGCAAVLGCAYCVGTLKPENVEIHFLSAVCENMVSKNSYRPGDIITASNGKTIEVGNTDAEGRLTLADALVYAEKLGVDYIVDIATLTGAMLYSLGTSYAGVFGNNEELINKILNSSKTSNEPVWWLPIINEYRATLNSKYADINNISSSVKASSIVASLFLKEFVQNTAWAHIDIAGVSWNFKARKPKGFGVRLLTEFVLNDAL

[4] = biological target: T2, P. falciparum rPfAM1 (Plasmodium falciparum, UniProt O96935); design: method as in PMID 28934959; conditions: read-out: Ki rPfAM1; cited from earlier work
T2 construct: made in house; host or cells: Escherichia coli Rosetta 2 (DE3)
T2 sequence (O96935 1-1085): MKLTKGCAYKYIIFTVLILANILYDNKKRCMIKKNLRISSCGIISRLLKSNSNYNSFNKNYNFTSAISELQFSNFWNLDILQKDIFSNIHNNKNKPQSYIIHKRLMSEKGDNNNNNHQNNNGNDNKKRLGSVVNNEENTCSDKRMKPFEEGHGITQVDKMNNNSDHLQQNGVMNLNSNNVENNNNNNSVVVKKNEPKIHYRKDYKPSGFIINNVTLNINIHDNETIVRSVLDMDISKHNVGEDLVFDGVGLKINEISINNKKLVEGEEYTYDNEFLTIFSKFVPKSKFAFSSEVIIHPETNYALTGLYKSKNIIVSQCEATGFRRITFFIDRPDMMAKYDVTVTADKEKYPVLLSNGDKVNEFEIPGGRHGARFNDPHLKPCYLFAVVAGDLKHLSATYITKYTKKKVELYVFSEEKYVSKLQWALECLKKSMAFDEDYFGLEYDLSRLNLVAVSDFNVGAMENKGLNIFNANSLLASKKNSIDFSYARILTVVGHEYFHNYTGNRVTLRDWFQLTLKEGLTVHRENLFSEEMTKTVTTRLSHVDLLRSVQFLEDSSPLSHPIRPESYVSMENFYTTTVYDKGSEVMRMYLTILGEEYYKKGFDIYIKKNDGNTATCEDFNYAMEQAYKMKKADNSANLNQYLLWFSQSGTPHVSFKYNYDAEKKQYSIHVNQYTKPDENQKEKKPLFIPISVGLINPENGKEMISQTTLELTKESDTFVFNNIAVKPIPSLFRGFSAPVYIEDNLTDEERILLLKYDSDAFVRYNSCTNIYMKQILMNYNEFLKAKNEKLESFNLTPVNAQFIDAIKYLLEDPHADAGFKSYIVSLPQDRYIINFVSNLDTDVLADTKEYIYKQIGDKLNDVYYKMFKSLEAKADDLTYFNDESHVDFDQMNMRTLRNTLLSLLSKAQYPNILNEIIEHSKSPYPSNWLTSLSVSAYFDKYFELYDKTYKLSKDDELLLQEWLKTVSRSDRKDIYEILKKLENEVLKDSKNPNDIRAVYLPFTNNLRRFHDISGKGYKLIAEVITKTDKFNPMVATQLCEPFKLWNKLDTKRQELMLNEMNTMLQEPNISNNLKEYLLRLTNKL

[5] = biological target: human puromycine sensitive aminopeptidase (rHsPSA) (Homo sapiens, UniProt P55786); assay: rHsPSA inhibition, Leu-pNA substrate, Dixon method; format: biochemical; conditions: triplicate, SD
Sequence of human puromycine sensitive aminopeptidase (rHsPSA) (P55786 whole entry): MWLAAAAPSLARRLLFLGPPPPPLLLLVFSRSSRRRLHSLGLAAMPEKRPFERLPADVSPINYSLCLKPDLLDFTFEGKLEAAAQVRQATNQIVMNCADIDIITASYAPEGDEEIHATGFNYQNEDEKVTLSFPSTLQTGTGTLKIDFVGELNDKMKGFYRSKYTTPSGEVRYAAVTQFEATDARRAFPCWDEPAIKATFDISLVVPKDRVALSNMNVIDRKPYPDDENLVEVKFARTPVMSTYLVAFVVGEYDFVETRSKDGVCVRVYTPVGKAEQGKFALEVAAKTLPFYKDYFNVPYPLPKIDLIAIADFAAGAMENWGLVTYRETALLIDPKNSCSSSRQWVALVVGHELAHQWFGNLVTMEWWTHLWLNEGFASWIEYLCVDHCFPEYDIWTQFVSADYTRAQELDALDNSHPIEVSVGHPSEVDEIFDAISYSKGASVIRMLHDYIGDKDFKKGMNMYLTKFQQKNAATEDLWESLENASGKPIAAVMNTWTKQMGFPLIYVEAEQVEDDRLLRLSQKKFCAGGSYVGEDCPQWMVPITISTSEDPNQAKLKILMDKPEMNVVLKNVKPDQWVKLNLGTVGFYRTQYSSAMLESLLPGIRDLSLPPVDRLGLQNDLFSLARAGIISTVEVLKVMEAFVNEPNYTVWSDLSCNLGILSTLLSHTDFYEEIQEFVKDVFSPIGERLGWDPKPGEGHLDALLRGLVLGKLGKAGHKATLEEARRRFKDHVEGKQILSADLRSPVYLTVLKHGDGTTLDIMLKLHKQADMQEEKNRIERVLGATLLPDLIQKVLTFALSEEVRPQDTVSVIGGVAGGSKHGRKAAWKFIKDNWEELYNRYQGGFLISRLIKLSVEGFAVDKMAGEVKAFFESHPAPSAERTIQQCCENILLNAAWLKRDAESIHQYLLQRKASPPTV
Experimental: Enzyme activity assays were carried out in 10 mM Tris-HCl buffer at pH 7.5 with 150 mM NaCl, enzyme, 100 µM substrate (Leu-pNA) in a 100 μL reaction at 37 °C. The absorbance was read at 405 nm. Concentrations ranging from 1 nM to 100 μM of inhibitors (dissolved in DMSO) were incubated with each of the enzymes ([…]) for 30 min at 37 °C in a 96 well plate. After addition of the substrate, immediate increase in absorption was measured. All inhibition assays were performed in triplicates and initial velocities were measured. Percentage inhibition and log values of inhibitor concentrations were plotted using SigmaPlot to determine IC50 values. Ki values were determined by the Dixon method. The assay consists of reaction buffer, enzyme and varied concentrations of Leu-pNA (25, 50, 100, 200 and 400 µM). […]. All the reactions were performed in triplicates, SD values were reported.

[6] = biological target: human leukotriene A4 hydrolase (rHsLTA4H); design: method as in PMID 21843945; conditions: ref 58; cited from earlier work
[7] = biological target: T3, human endoplasmic reticulum aminopeptidase 1 (rHsERAP1) (Homo sapiens, UniProt Q9NZ08); assay: rHsERAP1 inhibition, L-AMC fluorigenic substrate; format: biochemical; conditions: 50 µM L-AMC
T3 construct: made in house; host or cells: Hi5 insect cells (baculovirus produced in sf9)
T3 sequence (Q9NZ08 whole entry): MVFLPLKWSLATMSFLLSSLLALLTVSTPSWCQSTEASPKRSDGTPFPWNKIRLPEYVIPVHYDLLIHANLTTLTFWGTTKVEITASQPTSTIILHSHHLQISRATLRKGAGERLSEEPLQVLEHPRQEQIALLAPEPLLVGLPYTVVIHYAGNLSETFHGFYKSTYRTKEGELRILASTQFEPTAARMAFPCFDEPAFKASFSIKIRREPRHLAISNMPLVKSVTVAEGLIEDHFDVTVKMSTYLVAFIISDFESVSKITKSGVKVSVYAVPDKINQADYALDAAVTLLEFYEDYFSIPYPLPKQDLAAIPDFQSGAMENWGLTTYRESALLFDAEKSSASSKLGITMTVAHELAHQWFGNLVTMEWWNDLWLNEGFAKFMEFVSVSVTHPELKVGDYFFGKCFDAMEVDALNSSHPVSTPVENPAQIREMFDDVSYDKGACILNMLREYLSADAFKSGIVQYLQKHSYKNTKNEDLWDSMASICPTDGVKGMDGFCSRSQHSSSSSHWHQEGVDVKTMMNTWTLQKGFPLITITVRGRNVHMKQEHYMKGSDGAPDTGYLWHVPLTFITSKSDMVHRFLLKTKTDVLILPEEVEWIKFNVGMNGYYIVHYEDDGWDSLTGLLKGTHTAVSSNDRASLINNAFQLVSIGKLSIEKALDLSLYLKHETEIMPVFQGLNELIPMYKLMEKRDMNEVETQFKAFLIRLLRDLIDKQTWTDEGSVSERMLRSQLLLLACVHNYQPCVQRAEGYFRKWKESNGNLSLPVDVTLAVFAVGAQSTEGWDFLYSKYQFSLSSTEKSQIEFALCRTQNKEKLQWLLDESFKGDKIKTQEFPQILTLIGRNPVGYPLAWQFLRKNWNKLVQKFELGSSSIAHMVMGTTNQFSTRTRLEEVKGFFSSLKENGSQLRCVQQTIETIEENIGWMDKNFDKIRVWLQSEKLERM
Experimental: (§1) The enzymatic activity of HsERAP1, HsERAP2 and HsIRAP was determined by following the time-dependent increase in fluorescence at 460 nm (excitation: 380 nm) of the fluorigenic substrates L-Leucine-7-amido-4-methyl coumarin (L-AMC; Sigma, Darmstatd, Germany) for HsERAP1 and HsIRAP and L-arginyl-7-amido-4-methyl coumarin (R-AMC; Sigma) for HsERAP2. […] The reaction was followed for 10 min at room temperature and the remaining enzymatic activity was calculated by measuring the slope of the time course.

[8] = biological target: aminopeptidase from A. proteolytica (AAP); design: method as in PMID 21843945; conditions: ref 58; cited from earlier work
[9] = biological target: T4, human endoplasmic reticulum aminopeptidase 2 (rHsERAP2) (Homo sapiens, UniProt Q6P179); assay: rHsERAP2 inhibition, R-AMC fluorigenic substrate; format: biochemical; conditions: 50 µM R-AMC
T4 construct: made in house; host or cells: Hi5 insect cells (baculovirus produced in sf9)
T4 sequence (Q6P179 whole entry): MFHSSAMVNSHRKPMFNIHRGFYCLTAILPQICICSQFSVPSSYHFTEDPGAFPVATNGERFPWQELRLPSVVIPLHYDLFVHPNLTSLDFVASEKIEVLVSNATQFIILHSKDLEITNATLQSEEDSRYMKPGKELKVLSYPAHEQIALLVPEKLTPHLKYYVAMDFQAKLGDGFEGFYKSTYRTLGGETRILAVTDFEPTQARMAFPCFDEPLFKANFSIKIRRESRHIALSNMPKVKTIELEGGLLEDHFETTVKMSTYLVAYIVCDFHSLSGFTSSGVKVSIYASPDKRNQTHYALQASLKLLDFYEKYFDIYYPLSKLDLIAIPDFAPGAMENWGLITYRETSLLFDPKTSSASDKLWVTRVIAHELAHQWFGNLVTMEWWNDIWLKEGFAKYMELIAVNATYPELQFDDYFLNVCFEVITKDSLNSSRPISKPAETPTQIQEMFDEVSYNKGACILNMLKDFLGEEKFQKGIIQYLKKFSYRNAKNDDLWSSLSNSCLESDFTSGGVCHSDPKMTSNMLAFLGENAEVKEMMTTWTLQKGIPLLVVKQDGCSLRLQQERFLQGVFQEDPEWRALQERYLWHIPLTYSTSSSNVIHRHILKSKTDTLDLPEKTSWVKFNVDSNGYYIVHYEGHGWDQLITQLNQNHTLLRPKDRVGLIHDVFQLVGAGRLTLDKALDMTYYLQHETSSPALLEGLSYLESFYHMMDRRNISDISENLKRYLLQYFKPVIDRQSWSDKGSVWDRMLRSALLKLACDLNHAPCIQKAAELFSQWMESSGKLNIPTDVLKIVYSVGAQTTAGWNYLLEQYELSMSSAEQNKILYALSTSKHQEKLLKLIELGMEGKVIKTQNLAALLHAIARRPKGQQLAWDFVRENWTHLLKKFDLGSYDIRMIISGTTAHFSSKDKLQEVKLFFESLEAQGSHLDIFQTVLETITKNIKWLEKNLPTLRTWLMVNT
Experimental: as §1

[10] = biological target: E. coli rEcPepN (Escherichia coli, UniProt P04825); assay: rEcPepN inhibition, Leu-pNA substrate, Dixon method; format: biochemical
Sequence of E. coli rEcPepN (P04825 whole entry): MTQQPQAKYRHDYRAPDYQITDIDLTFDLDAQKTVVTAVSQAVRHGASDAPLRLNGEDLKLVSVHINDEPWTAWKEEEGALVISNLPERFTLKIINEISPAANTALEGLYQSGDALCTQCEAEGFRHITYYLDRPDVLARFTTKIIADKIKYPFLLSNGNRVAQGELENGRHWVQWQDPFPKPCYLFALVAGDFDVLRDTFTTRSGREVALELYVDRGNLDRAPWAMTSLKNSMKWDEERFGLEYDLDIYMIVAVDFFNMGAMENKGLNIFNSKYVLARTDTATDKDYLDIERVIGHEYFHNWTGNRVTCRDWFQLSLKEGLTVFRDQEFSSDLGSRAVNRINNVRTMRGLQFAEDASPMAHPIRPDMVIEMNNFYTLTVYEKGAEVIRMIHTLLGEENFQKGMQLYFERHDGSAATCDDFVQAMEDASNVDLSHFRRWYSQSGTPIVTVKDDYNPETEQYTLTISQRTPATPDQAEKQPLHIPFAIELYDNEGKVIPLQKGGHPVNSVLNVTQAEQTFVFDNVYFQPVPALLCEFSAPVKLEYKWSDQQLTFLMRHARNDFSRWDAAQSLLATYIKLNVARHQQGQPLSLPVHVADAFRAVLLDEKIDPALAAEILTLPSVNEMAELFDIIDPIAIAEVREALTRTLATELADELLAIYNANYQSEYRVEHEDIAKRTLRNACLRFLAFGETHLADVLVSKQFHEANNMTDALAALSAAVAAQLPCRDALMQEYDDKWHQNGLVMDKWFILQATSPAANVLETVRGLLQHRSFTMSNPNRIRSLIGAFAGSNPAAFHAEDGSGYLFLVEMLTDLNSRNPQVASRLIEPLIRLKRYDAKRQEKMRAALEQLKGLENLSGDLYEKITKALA
Experimental: Enzyme activity assays were carried out in 10 mM Tris-HCl buffer at pH 7.5 with 150 mM NaCl, enzyme, 100 µM substrate (Leu-pNA) in a 100 μL reaction at 37 °C. The absorbance was read at 405 nm. Concentrations ranging from 1 nM to 100 μM of inhibitors (dissolved in DMSO) were incubated with each of the enzymes ([…]) for 30 min at 37 °C in a 96 well plate. After addition of the substrate, immediate increase in absorption was measured. All inhibition assays were performed in triplicates and initial velocities were measured. Percentage inhibition and log values of inhibitor concentrations were plotted using SigmaPlot to determine IC50 values. Ki values were determined by the Dixon method. The assay consists of reaction buffer, enzyme and varied concentrations of Leu-pNA (25, 50, 100, 200 and 400 µM). […] Data were plotted as 1/rate versus inhibitor concentration for each substrate concentration and a linear fit was calculated by non-linear regression using SigmaPlot12.5. All the reactions were performed in triplicates, SD values were reported.

[11] = biological target: P. falciparum (PfAM1) M1 aminopeptidase; conditions: ref 44; cited from earlier work
[12] = biological target: human arginyl aminopeptidase B (HsAPB); conditions: cited from earlier work
[13] = biological target: P. falciparum M17 aminopeptidase (PfAM17); conditions: ref 45; cited from earlier work
[14] = biological target: mammalian cytosolic leucine aminopeptidase (mLAPc); conditions: cited from earlier work
[15] = biological target: mammalian aminopeptidase N (mAPN); conditions: cited from earlier work
[16] = biological target: human puromycine sensitive aminopeptidase (HsPSA); conditions: ref 37; cited from earlier work
[17] = biological target: bimetallic aminopeptidase from A. proteolytica (AAP); design: method as in PMID 21292493; conditions: ref 42; cited from earlier work
[18] = tested on: E. coli (EcPepN) M1 aminopeptidase; conditions: ref 43; cited from earlier work
[19] = biological target: human endoplasmic reticulum aminopeptidase 1 (HsERAP1); conditions: ref 41; cited from earlier work
[20] = biological target: human Leucyl-cystinyl aminopeptidase (HsIRAP); conditions: ref 48; cited from earlier work

Which results are given for `NC1CCc2cccc(-c3ccccc3)c2CC1=O` (centres unmarked) [21c]?
Ki [1]: 7 nM; chromatographic logD [2]: 2.12; Ki [3]: > 100000 nM; Ki [4]: 50 ± 5 nM; Ki [5]: 50 ± 4 nM; Ki [6]: 19000 nM; IC50 [7]: 63000 ± 3000 nM; Ki [8]: 28000 nM; IC50 [9]: 18000 ± 1300 nM; Ki [10]: 160 ± 12 nM

With `CC(C)C[C@H](NC(=O)[C@@H](O)[C@H](N)Cc1ccccc1)C(=O)O` [compound 1, Bestatin] as the compound, how does the Ki [11] read?
The Ki was 190 nM.

And the Ki ([12]; ref 38)?
Its Ki is 6000 nM.

What about the Ki ([12]; ref 39) of the same compound?
The Ki was 14 nM.

And the Ki [13]?
Its Ki is 25 nM.

And the Ki ([14]; ref 38)?
The Ki was 0.6 nM.

And the Ki ([14]; ref 39)?
The Ki was 20 nM.

What about the IC50 ([15]; ref 37) of the same compound?
The IC50 was 300 nM.

And the Ki ([15]; ref 40)?
The Ki was 89000 nM.

What about the IC50 [16] of the same compound?
Its IC50 is 350 nM.

What about the Ki [17] of the same compound?
Its Ki is 1.6 nM.

What about the IC50 [18] of the same compound?
The IC50 was 7300 nM.

What about the Ki [19] of the same compound?
Its Ki is 11200 nM.

For `C#CC[C@H](CP(=O)(O)[C@@H](N)CCc1ccccc1)C(=O)N[C@@H](Cc1ccccc1)C(N)=O` [compound 3], which IC50 [20] is on record?
Its IC50 is 2 nM.
